Converted amounts (≈) assume the structure as drawn. “Also recorded” adds a separate entry of the source. Where two headings read alike, the source gives them in different places. Values belong to the compound of their own block, whether it stands above or below them.
How the values were obtained:
PPARγ = assay: Immunoblotting, PPARγ expression; format: cell-based, mouse; conditions: early treatment, day 3
Procedure: (§1) Primary antibodies which include AMPK-amAb, and Phospho-AMPKa(p-AMPKa) (Thr172) mAb, Acetyl-CoA Carboxylase (ACC) mAb, fatty acid synthase mAb RAs-related Nuclear protein (Ran) pAb, PPARc mAb, and C/EBPa pAb were all obtained from Cell Signaling Technology (Danvers, MA, USA). They were diluted by 1000 times for immunoblotting analyses.
(§2) At day 3 or day 8, cells are harvested with scraper and homogenized with lysis buffer containing 0.5 mM PMSF, 1 mM mini-complete protease inhibitor cocktail (Sigma, St. Louis, MO, USA) and phosphatase inhibitor cocktail (Sigma, St. Louis, MO, USA). Lysates are syringed with 26 gauge ½ in. needles on ice and then applied for centrifugation at 14,000g for 15 min at 4° C. Protein concentration of cell lysates are determined by using Protein and Protein Broad Range (BR) Assay Kits (Thermofisher, Waltham, MA USA) according to the venture's protocol. Lysates are then stored at −80° C. or immediately are subjected to sodium dodecyl sulfate polyacrylamide gel electrophoresis (SDS-PAGE). For the SDS-PAGE, cell lysates are mixed with loading buffer and heated at 95° C. for 5 min prior to electrophoresis. […] Quantification is performed by measuring band intensity using ImageJ software and calculating the ratio of protein of interesting to RAN the internal loading control.

[1] = MTT assay, pre-confluent cell proliferation; format: cell-based, mouse; conditions: mouse, pre-confluent 3T3-L1 preadipocytes
Procedure: (§3) 3T3-L1 cells were purchased from American Type Culture Collection (ATCC, Rockville, MD) and maintained in MEME media with 10% FBS 1% penicillin/streptomycin (GIBCO, Paisley, UK) in a humidified atmosphere of 5% CO2 in air at 37° C. Cells were passaged by using 0.05% (vol) Trypsin and replated in 55-cm^2 dishes at a density of 1*10^4 cells/cm^2 until confluence.
(§4) For treatment, nobiletin and the mixture of 6- and 7-OH-nobiletin (M67N) in a 1:49 ratio were first dissolved in dimethyl sulphoxide (DMSO) to make stock solution (5 mM to 100 mM). (FIG. 20) The stock solution was then diluted by 1000 times with culture medium to designated concentrations. Cells cultured in full DMEM was set as negative control while cells treated with DM with 0.1% DMSO as positive control.
(§5) 3T3-L1 cells were seeded on 96-well plate at density of 1×10^4 cells/well and incubated overnight for cell attachment. For measuring pre-confluent cell proliferation, cells were cultivated for 36 hours and full MEME with or without nobiletin or M67N was used. For measuring post-confluent cell proliferation during first three days of differentiation, cells were switched to DM with different concentrations of nobiletin or M67N for 72 hours. At the end of each treatment, cells were washed with PBS three times. MTT ([…]) was added at concentration of 0.5 mg/mL to the cells. After a 3-hour incubation, the medium was decanted from each well and 150 μL DMSO was added to dissolve the formed formazan crystals on a shaker. When the crystal was completely dissolved, the absorbance at 570 nm was measured. Cell viability was interpreted as the percentage (%) of the readout of treated cells divided by that of control. Six repeats were carried out for each concentration.
(§6) 3T3-L1 cells were seeded on 96-well plate at density of 1×10^4 cells/well and were incubated overnight for cell attachment. For measuring pre-confluent cell proliferation, full MEME with or without nobiletin or 6-OH-nobiletin, or 7-OH-nobiletin was used and cells were cultivated for 36 hours. For measuring post-confluent cell proliferation during the first three days of differentiation, cells were treated after 2 days of confluence. Specifically, cells were switched to differentiation medium (DM) with different concentrations of targeted compounds for 24 hours. At the end of each treatment, cells were washed with PBS three times followed by the addition of 100 μL MTT at concentration of 0.5 mg/mL. After 3 hours' incubation, the medium in each well were decanted while 150 μL DMSO was added to dissolve the formed formazan crystals at a shaker. When the crystals were completely dissolved, the absorbance of at 590 nm was measured. Cell viability was interpreted as the percentage (%) of the readout of treated cells divided by that of control. Five repeats were carried out for each concentration.

[2] = Effect of pH of fermented media on extracted content of M2 and M3 (stability); format: physicochemical; conditions: for stability at alkaline condition: pH 8.0 and 10.0
Procedure: Lastly, the fermented media was adjusted to pH 2.0, 5.0, 6.5, 7.0, 8.0 and 10.0 using HCl or NaOH. Subsequently, 3 extractions were conducted, and the sample was dried, weighed and analyzed using HPLC. The amount of extracted metabolites were compared and used to evaluate the effect of pH on extraction.

AMPK = assay: Immunoblotting, AMPK and p-AMPK; format: cell-based, mouse; conditions: early and terminal differentiation processes
Procedure: as §1, §2

[3] = MTT assay, post-confluent cells (mitotic clonal expansion); format: cell-based, mouse; conditions: mouse, post-confluent 3T3-L1 cells, percent of control, read-out: cell viability
Procedure: as §5, §6

[4] = system: post-confluent 3T3-L1 cells; assay: as above; format: cell-based, mouse; conditions: 5 μM to 25 μM
Procedure: as §5, §6

[5] = system: differentiating 3T3-L1 adipocytes; assay: Oil Red O staining, lipid accumulation; format: cell-based, mouse; conditions: for intracellular lipid content: 15 μM; for intracellular lipid content / lipid formation / accumulation reduced to: relative to positive control; for inhibition at 50 µM: Mus musculus, 3T3-L1; for effect on intracellular lipid accumulation: various concentrations, Oil Red O at day 8
Procedure: Two days after confluence, designated as day 0, adipocyte differentiation was initiated by culturing the cells for three days in differentiation medium (DM) which contained 10 μg/mL insulin, 0.5 mM IBMX, and 1 μM dexamethasone in complete culture medium. At day 3, the medium was replaced with DMEM, containing 10 μg/mL insulin. The medium was changed every two days until day 8. Cells were harvested on day 3 or day 8.
as §4
On day 8, cell layers were washed with 1×PBS and fixed with 10% paraformaldehyde (Sigma, St. Louis, MO, USA). After 15 minutes' fixation, the medium in each well was decanted and placed in a fume hood for complete dryness. Afterwards, cells were subjected to Oil Red O staining for 30 min, which was followed by immediate rinse in water. The intracellular lipid droplets were checked and pictures were captured on Olympus FSX100 Microscope. For the quantification of intracellular lipids, dyes were dissolved in 4% NP-40/isopropanol and the absorbance was measured at 520 nm by a microplate reader.

3T3-L1 cells [6] = assay: Flow cytometry with PI staining, cell cycle distribution; format: cell-based, mouse
Procedure: 3T3-L1 cells were seeded in six-well plates at a density of 3-5×10^5/well. After 2 days of confluency, cells were treated with DM in the absence or presence of several doses of nobiletin or […] for 24h. Both detached and adherent cells were harvested by trypsinization and washed with phosphate buffered saline (PBS). Cells were fixed with 70% ice cold ethanol and placed at 4° C. overnight. After removal of ethanol, cells were stained with propidium iodide containing RNAse ((Carlsbad, CA)) for 30 min in the dark. Fluorescence cells analysis was carried out by using an Accuri C6 flow cytometer. Data were processed using Flowjo_10 software. Each experiment was performed 3 times to reduce variance.

FAS = assay: Immunoblotting, FAS expression; format: cell-based, mouse; conditions: late phase treatment group, day 8
Procedure: as §1, §2

C/EBPα = assay: Immunoblotting, C/EBPα expression; format: cell-based, mouse; conditions: early treatment, day 3
Procedure: as §1, §2

ACC = assay: Immunoblotting, ACC expression; format: cell-based, mouse; conditions: late phase treatment group, day 8
Procedure: as §1, §2

[7] = system: post-confluent 3T3-L1 cells; conditions: 3T3-L1 preadipocytes; Hadrich & Sayadi, 2018; cited from earlier work
3T3-L1 cells [8] = conditions: 3T3-L1 preadipocytes; Hadrich & Sayadi, 2018; cited from earlier work
3T3-L1 preadipocytes = assay: MTT assay, pre-confluent cell proliferation; format: cell-based, mouse
Procedure: as §3, §4, §5, §6

[9] = Solubility of nobiletin in DMSO; format: physicochemical; conditions: organic solvent or mixture, read-out: maximal solubility in DMSO
[10] = Water solubility of nobiletin / nobiletin-HMS dispersion; format: physicochemical; conditions: 25 °C
Procedure: To check the water solubility of nobiletin in the nobiletin-HMS dispersion system, an excess of the media-milled nobiletin powder was dispersed into distilled water and agitated thoroughly for 24 hours at room temperature to reach full saturation.

[11] = fermented media at pH 2.0 (first of four values, pH 2.0 to 7.0)
[12] = fermented media at pH 5.0 (second of four values)
[13] = fermented media at pH 6.5 (third of four values)
[14] = fermented media at pH 7.0 (fourth of four values)

- total amount of extracted metabolite [2, 11]: 123.9 ± 4.6 µg/mL
- total amount of extracted metabolite [2, 12]: 125.6 ± 3.2 µg/mL
- total amount of extracted metabolite [2, 13]: 125.8 ± 1.9 µg/mL
- total amount of extracted metabolite [2, 14]: 125.9 ± 1.2 µg/mL
- content of extracted metabolite ([2]; pH 8.0): 110 ± 1.7 µg/mL
- stability at alkaline condition [2]: not stable at alkaline condition
- content of extracted metabolite ([2]; pH 10.0): 109 ± 2.6 µg/mL
SMILES: COc1ccc(-c2cc(=O)c3c(OC)c(O)c(OC)c(OC)c3o2)cc1OC [6-OH-nobiletin, 6-hydroxy-5,7,8,3′,4′-pentamethoxyflavone]
- expression level of PPARγ (PPARγ): dose-dependently suppressed
- viability at 36 h, 75 µM ([1]; 75 μM, percent of control): ~82%
- viability at 36 h, 100 µM ([1]; 100 μM, percent of control): ~65%
- expression and phosphorylation of AMPK (AMPK): greatly enhanced
- viability at 24 h, 35 µM ([3]; 35 μM): 83.1 ± 6.2%
- viability at 24 h, 50 µM ([3]; 50 μM): 85.6 ± 5.3%
- change of cell viability [4]: no significant difference
- intracellular lipid content [5]: 69.8±2.1%
- decrease of lipid content ([5]; 50 μM, early phase treatment (day 0 to day 3)): 50%
- lipid formation / accumulation reduced to ([5]; 50 μM): 24.3±4.2%
- inhibition at 50 µM ([5]; 50 μM, late-phase treatment (day 4 to day 8), read-out: inhibition of lipid accumulation): 72%
- effect of early phase and late phase treatment on lipid accumulation ([5]; early phase day 0-3, late phase day 4-8): suppressed the lipid accumulation in a dose-dependent matter
- effect on intracellular lipid accumulation [5]: obvious suppressive effect on intracellular lipid accumulation
- cells in S phase (3T3-L1 cells [6]; 5 μM): 42%
- preadipocytes in G2/M phase (3T3-L1 cells [6]; 5 μM): 40%
- population in G2/M phase (3T3-L1 cells [6]; 50 μM): 20%
- population in S phase (3T3-L1 cells [6]; 50 μM): 60%
- effect on cell cycle progression (3T3-L1 cells [6]; serial doses in differentiation medium): significantly delayed the progression of the cell cycle and increased the S population in a dose-dependent manner
- expression of FAS (FAS): significantly suppressed their expression
- production of C/EBPα (C/EBPα): greatly reduced
- expression of ACC (ACC): significantly suppressed their expression

SMILES: O=c1cc(-c2ccc(O)cc2)oc2cc(O[C@@H]3O[C@H](CO)[C@@H](O)[C@H](O)[C@H]3O)cc(O)c12 [apigetrin]
- decrease of cell viability [7]: 50%
- cell cycle arrest (3T3-L1 cells [8]): arrest 3T3-L1 preadipocytes at G1 phase

- total amount of extracted metabolite [2, 11]: 46.5 ± 1.3 µg/mL
- total amount of extracted metabolite [2, 12]: 47.5 ± 1.9 µg/mL
- total amount of extracted metabolite [2, 13]: 47.6 ± 0.7 µg/mL
- total amount of extracted metabolite [2, 14]: 46.9 ± 1.5 µg/mL
- content of extracted metabolite ([2]; pH 8.0): 39.2 ± 1.8 µg/mL
- stability at alkaline condition [2]: not stable at alkaline condition
- content of extracted metabolite ([2]; pH 10.0): 11.7 ± 0.6 µg/mL
SMILES: COc1ccc(-c2cc(=O)c3c(OC)c(OC)c(O)c(OC)c3o2)cc1OC [7-OH-nobiletin, 7-hydroxy-5,6,8,3′,4′-pentamethoxyflavone]
- effect on cell proliferation (3T3-L1 preadipocytes; even at 100 μM): did not present significant effect on cell proliferation
- effect on intracellular lipid accumulation [5]: obvious suppressive effect on intracellular lipid accumulation

- solubility [9]: ≤ 18000 µg/mL
- solubility [10]: 9.2 µg/mL (≈ 22.9 µM)
SMILES: COc1ccc(-c2cc(=O)c3c(OC)c(OC)c(OC)c(OC)c3o2)cc1OC [Nobiletin, 5,6,7,8,3′,4′-hexamethoxyflavone, reference compound]
- cytotoxicity at 36 h, 100 μM ([1]; 100 μM, read-out: cell viability reduced by): 50%
- inhibitory effect on the proliferation of preadipocytes (3T3-L1 preadipocytes; up to 75 μM): did not show any inhibitory effect; also recorded: did not demonstrated any inhibition effect
- intracellular lipid content [5]: 101.254±6.096%
- lipid formation / accumulation reduced to ([5]; 50 μM): 45.2±4.9%
- inhibition at 50 µM ([5]; 50 μM, read-out: reduction of lipid formation / inhibition of lipid accumulation): 50%
- effect on intracellular lipid accumulation [5]: decreased the intracellular lipid content in a dose-dependent way; also recorded: obvious suppressive effect on intracellular lipid accumulation
